Assay results taken from ChEMBL document CHEMBL1201862, “PubChem BioAssay data set” (2004).
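Dose response: 5 concentrations. Exposure: 48 h. Format: 96-well plates. Endpoint: linear interpolation; highest concentration if not reached. GI50 = concentration required for 50% inhibition of growth.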 Calls of active or inactive are those of the source. Rule as the data show it: active = GI50 up to about 1.1 µM and inactive = higher.

How the values were obtained:
Assay in all cases: DTP human tumour cell line panel, 48 h
U-251 = tested on: U-251
Malme-3M = tested on: Malme-3M
DU-145 = tested on: DU-145
MDA-N = tested on: MDA-N
CCRF-CEM = tested on: CCRF-CEM
SNB-75 = tested on: SNB-75
NCI-H23 = tested on: NCI-H23
UACC-62 = tested on: UACC-62
K562 = tested on: K562
MCF7 = tested on: MCF7
SK-MEL-28 = tested on: SK-MEL-28
LOX IMVI = tested on: LOX IMVI
SK-MEL-5 = tested on: SK-MEL-5
HL-60 = tested on: HL-60
HT-29 = tested on: HT-29
MDA-MB-231 = tested on: MDA-MB-231
A549 = tested on: A549
NCI-H460 = tested on: NCI-H460
NCI/ADR-RES = tested on: NCI/ADR-RES

Row | SMILES | GI50 (U-251) | GI50 (Malme-3M) | GI50 (DU-145) | GI50 (MDA-N) | GI50 (CCRF-CEM) | GI50 (SNB-75) | GI50 (NCI-H23) | GI50 (UACC-62) | GI50 (K562) | GI50 (MCF7) | GI50 (SK-MEL-28) | GI50 (LOX IMVI) | GI50 (SK-MEL-5) | GI50 (HL-60) | GI50 (HT-29) | GI50 (MDA-MB-231) | GI50 (A549) | GI50 (NCI-H460) | GI50 (NCI/ADR-RES)
1 | O=C1c2ccccc2C(=O)c2c(NC3CCCCC3)ccc(Nc3ccc(S(=O)(=O)O)cc3)c21 | 29.6 µM (inactive) | 23.4 µM (inactive) | > 100 µM (inactive) | 46 µM (inactive) | 26.3 µM (inactive) | > 100 µM (inactive) | 77.1 µM (inactive) | > 100 µM (inactive) | 52 µM (inactive) | 21.3 µM (inactive) | > 100 µM (inactive) | 32.7 µM (inactive) | 63 µM (inactive) | 31.6 µM (inactive) | 39.4 µM (inactive) | 22.5 µM (inactive) | 33.9 µM (inactive) | 62.5 µM (inactive) | > 100 µM (inactive)
2 | CC(=O)c1[nH]c(Nc2ccc(C)cc2)c(C(=S)Nc2ccccc2)c1N | 14.4 µM (inactive) | 17.1 µM (inactive) | 16.3 µM (inactive) | 16 µM (inactive) | 21 µM (inactive) | 19.9 µM (inactive) | 17.8 µM (inactive) | 16.2 µM (inactive) | 9.31 µM (inactive) | 15.7 µM (inactive) | 19.5 µM (inactive) | 16.4 µM (inactive) | 15.6 µM (inactive) | 15.8 µM (inactive) | 25.8 µM (inactive) | 16.5 µM (inactive) | 14.9 µM (inactive) | 15.7 µM (inactive) | 26.8 µM (inactive)
3 | CCN1CC2=C(OC(N)=C(C#N)C2c2ccc(Cl)cc2)/C(=C/c2ccc(Cl)cc2)C1 (stereo not drawn) | 16.4 µM (inactive) | 18.9 µM (inactive) | 42.4 µM (inactive) | 35 µM (inactive) | 18.3 µM (inactive) | 12.5 µM (inactive) | 22.5 µM (inactive) | 26.9 µM (inactive) | 8.81 µM (inactive) | 30.5 µM (inactive) | 14.9 µM (inactive) | 26.8 µM (inactive) | 13.1 µM (inactive) | > 100 µM (inactive) | 38.7 µM (inactive) | 16.1 µM (inactive) | 14.2 µM (inactive) | 14 µM (inactive) | 27.3 µM (inactive)
4 | O=C(CCCN1CCC2(CC1)CC(=O)N(N1CCCCCC1)C2=O)c1ccc(F)cc1 | > 100 µM (inactive) | 52.8 µM (inactive) | > 100 µM (inactive) | > 100 µM (inactive) | 5.7 µM (inactive) | 50.8 µM (inactive) | 54.2 µM (inactive) | > 100 µM (inactive) | 32.4 µM (inactive) | 46.2 µM (inactive) | > 100 µM (inactive) | 33.1 µM (inactive) | 34.4 µM (inactive) | 14.1 µM (inactive) | 16.4 µM (inactive) | 82.6 µM (inactive) | > 100 µM (inactive) |  | 18.2 µM (inactive)
5 | C/C(=N\NC(=S)Nc1ccccc1)c1nc2cccnc2[nH]1 | 2.49 µM (inactive) | 2.18 µM (inactive) | 2.84 µM (inactive) | 5.65 µM (inactive) | 0.389 µM (active) | 12.2 µM (inactive) | 9.53 µM (inactive) | 2.85 µM (inactive) | 3.35 µM (inactive) | 0.338 µM (active) | 0.706 µM (active) | 2.31 µM (inactive) | 2.69 µM (inactive) | 2.92 µM (inactive) | 0.826 µM (active) | 1.06 µM (active) | 3.31 µM (inactive) | 1.54 µM (inactive) | 3.3 µM (inactive)
6 | OC(c1ccc2c(c1)OCO2)c1ccc2c(c1)OCO2 | > 100 µM (inactive) | > 100 µM (inactive) | > 100 µM (inactive) | > 100 µM (inactive) | > 100 µM (inactive) | 80.4 µM (inactive) | > 100 µM (inactive) | > 100 µM (inactive) | > 100 µM (inactive) | > 100 µM (inactive) | > 100 µM (inactive) | > 100 µM (inactive) | > 100 µM (inactive) | > 100 µM (inactive) | > 100 µM (inactive) | > 100 µM (inactive) | > 100 µM (inactive) | > 100 µM (inactive) | > 100 µM (inactive)
7 | N/C(=N\c1ccccc1Cl)c1ccccc1N | > 100 µM (inactive) | > 100 µM (inactive) | > 100 µM (inactive) | > 100 µM (inactive) | > 100 µM (inactive) | 95.5 µM (inactive) | > 100 µM (inactive) | > 100 µM (inactive) | > 100 µM (inactive) | > 100 µM (inactive) | > 100 µM (inactive) | > 100 µM (inactive) | > 100 µM (inactive) | > 100 µM (inactive) | > 100 µM (inactive) | > 100 µM (inactive) | > 100 µM (inactive) | > 100 µM (inactive) | > 100 µM (inactive)
8 | COc1ccc(/N=N/C(=O)NC(CC(C)C)C(N)=O)cc1 (stereo not drawn) | > 100 µM (inactive) | > 100 µM (inactive) | 49.1 µM (inactive) | 30.2 µM (inactive) | > 27.7 µM (inactive) | > 100 µM (inactive) | > 100 µM (inactive) | 6.92 µM (inactive) | 1.43 µM (inactive) | 24.3 µM (inactive) | > 69 µM (inactive) | 9.48 µM (inactive) | > 62.4 µM (inactive) | > 100 µM (inactive) | > 100 µM (inactive) | > 31.6 µM (inactive) | 9.14 µM (inactive) | 11.6 µM (inactive) | 55.5 µM (inactive)
9 | COc1ccc(-n2c(C)nc3ccc(NC4OC(COC(C)=O)C(OC(C)=O)C(OC(C)=O)C4OC(C)=O)cc3c2=O)cc1 (stereo not drawn) | > 100 µM (inactive) | 69.3 µM (inactive) | > 100 µM (inactive) | 83.4 µM (inactive) |  | > 100 µM (inactive) | 60.4 µM (inactive) | 67 µM (inactive) | 36.7 µM (inactive) | 45.9 µM (inactive) | 34 µM (inactive) | 28.5 µM (inactive) | > 100 µM (inactive) | 20.3 µM (inactive) | 53.3 µM (inactive) | > 100 µM (inactive) |  | > 100 µM (inactive) | > 100 µM (inactive)
10 | CC1(C)C(=O)C(C)(C)C12SSC1(S2)C(C)(C)C(=O)C1(C)C | > 100 µM (inactive) | 48.2 µM (inactive) | > 100 µM (inactive) | > 100 µM (inactive) |  | > 100 µM (inactive) | > 100 µM (inactive) | > 100 µM (inactive) | > 100 µM (inactive) | > 100 µM (inactive) | > 100 µM (inactive) | > 100 µM (inactive) | > 100 µM (inactive) | 2.41 µM (inactive) | > 100 µM (inactive) | > 100 µM (inactive) | 64.9 µM (inactive) | > 100 µM (inactive) | 77.1 µM (inactive)
11 | Cc1ccc(S(=O)(=O)N(CC(O)c2ccccc2)c2ccccc2F)cc1 (stereo not drawn) | 19.5 µM (inactive) | 16.4 µM (inactive) | 16.1 µM (inactive) | 15.7 µM (inactive) | 25.3 µM (inactive) | 12.3 µM (inactive) | 16.6 µM (inactive) | 12.2 µM (inactive) | 17 µM (inactive) | 13 µM (inactive) | 18 µM (inactive) | 16.1 µM (inactive) | 15.9 µM (inactive) | 1.13 µM (inactive) | 19.3 µM (inactive) | 18.2 µM (inactive) | 19.5 µM (inactive) | 17.4 µM (inactive) | 16.4 µM (inactive)
12 | COc1cc(CNc2ccc3nc4n(c(=O)c3c2)CCCCC4)cc(OC)c1OC | > 100 µM (inactive) | 30.7 µM (inactive) | 66.7 µM (inactive) | 46.2 µM (inactive) | 13.6 µM (inactive) | 48.9 µM (inactive) | 37.2 µM (inactive) | 43.6 µM (inactive) | > 100 µM (inactive) | 32.2 µM (inactive) | 43.4 µM (inactive) | 55.2 µM (inactive) | 22.3 µM (inactive) | > 100 µM (inactive) | 81.7 µM (inactive) | 27.3 µM (inactive) | 51.1 µM (inactive) | 39.9 µM (inactive) | 40.4 µM (inactive)
13 | Cc1ccc2ccc(=O)oc2c1 | > 100 µM (inactive) | > 100 µM (inactive) | > 100 µM (inactive) | > 100 µM (inactive) | > 100 µM (inactive) | > 100 µM (inactive) | > 100 µM (inactive) | 74.5 µM (inactive) | > 100 µM (inactive) | > 100 µM (inactive) | > 100 µM (inactive) | > 100 µM (inactive) | > 100 µM (inactive) | > 100 µM (inactive) | > 100 µM (inactive) | > 100 µM (inactive) | > 100 µM (inactive) | > 100 µM (inactive) | > 100 µM (inactive)
14 | COc1ccc(/C=C/C(=O)c2cc(CN(C)C)c(O)c(CN(C)C)c2)cc1 | 48.1 µM (inactive) | 25.2 µM (inactive) | 34.2 µM (inactive) | 21.2 µM (inactive) | 35.2 µM (inactive) | 19 µM (inactive) | 46.9 µM (inactive) |  | 26.7 µM (inactive) | 36.6 µM (inactive) | 54.2 µM (inactive) | 14.2 µM (inactive) | 16.2 µM (inactive) | 22.9 µM (inactive) | 27.7 µM (inactive) | 23.2 µM (inactive) | 27.6 µM (inactive) | 18.7 µM (inactive) | 33.1 µM (inactive)
15 | Oc1cc(O)c2c(c1)O[C@H](c1cc(O)c(O)c(O)c1)[C@H](O)C2 [EPIGALLOCATECHIN] | 16.4 µM (inactive) | > 100 µM (inactive) | 63.7 µM (inactive) | 18.8 µM (inactive) | 17.9 µM (inactive) | 31.6 µM (inactive) | 23.1 µM (inactive) |  | 20.4 µM (inactive) | 20.8 µM (inactive) | 36.6 µM (inactive) | 27.9 µM (inactive) | 16.9 µM (inactive) | 19.5 µM (inactive) |  | 18.7 µM (inactive) | 27.5 µM (inactive) | 18.3 µM (inactive) | 22.6 µM (inactive)
